# Test results: US10940139B2, “Compounds that interact with the Ras superfamily for the treatment of cancers, inflammatory diseases, rasopathies, and fibrotic disease” (Shy Therapeutics LLC, priority 2017, dated 2021)
# Tested on: MIA-PACA2 pancreatic cancer cell lines
# Assay: Cell proliferation assay (CellTiter 96 AQueous One)
# Assay type: cell-based
# Settings: Homo sapiens, MIA PaCa-2; MIA-PACA2, same assay as the % inhibition (standard conditions)
# Method: Cell lines: Tumor-derived pancreatic cancer cell lines MIA-PACA2 were purchased from ATCC and grown in complete DMEM-High Glucose medium supplemented with penicillin (100 U/mL), streptomycin (100 μg/mL), and 10% heat-inactivated FBS at 37° C. in a humidified incubator with 5% CO2.
# Method: Cells are plated at 1000 cells/well density in 96-wells plate, starved ON, and the next day tested small molecules are added to the cells in the final concentration of 30 μM with 0.3% DMSO 3 hours prior to 10% FBS addition. After serum addition cells are incubated for 6 days at 37° C. in a humidified incubator with 5% CO2. For IC50 value determination, serial dilutions of compounds were added to cells under the same conditions.
# Assay: At the end of the incubation period, cell cultures are tested using the CellTiter 96® AQueous One Solution Cell Proliferation Assay kit (Promega Corporation, Madison, Wis.) according to the manufacturer specifications. Briefly, assay is performed by adding 20 μl of the CellTiter 96 Aqueous One Solution Reagent directly to culture wells, followed by for 1-4 hours incubation at 37° C. in a humidified incubator with 5% CO2. At the end of incubation time, absorbance at 492 nm is recorded with the 96-well plate reader Eppendorf AF2200, and degree of small molecule-dependent proliferation inhibition is calculated from raw data assuming No Serum cells value as 100%.
row,IC50 [nM],SMILES
1,100 to 500,Oc1nc(-c2ccccn2)nc2c(-c3cccc4c3OCO4)csc12 [drawing 1725]
2,100 to 500,COc1cccc(N2CCN(C(=O)c3csc4c(O)nc(-c5ccccn5)nc34)CC2)c1 [drawing 1632]
3,100 to 500,Oc1nc(-c2ccccn2)nc2c(-c3ccccc3)csc12 [drawing 1581]

row,SMILES,IC50 [nM]
1,CC1CN(c2ccccc2)CCN1C(=O)c1csc2c(O)nc(-c3ccccn3)nc12 (centres unmarked) [drawing 1654],501 to 1000

# Same assay, conditions: Homo sapiens, MIA PaCa-2; at 30 μM, MIA-PACA2
row,SMILES,inhibition at 30 µM [%]
1,O=C(Nc1nnc(-c2ccccn2)[nH]1)c1ccn(-c2ccccc2)n1 [drawing 1394],76 to 100
2,COc1ccncc1CCNC(=O)c1csc2nc(-c3ccccn3)nc(N3CCOCC3)c12 [drawing 1673],76 to 100
3,CN(CC(=O)N1CCOCC1)c1nc(-c2ccccn2)nc2scc(-c3ccccc3)c12 [drawing 1609],51 to 75
4,COc1cc(CNc2nc(-c3ccccn3)nc3scc(-c4ccccc4)c23)ccc1OCC(N)=O,76 to 100
5,COC(=O)c1cc2nc(-c3ccccn3)nc(O)c2s1 [drawing 1783],76 to 100
6,CC(Oc1cccc(C#N)c1)C(=O)Nc1nnc(-c2ccccn2)[nH]1 (centres unmarked) [drawing 1424],76 to 100
7,CC(C(=O)Nc1nc(-c2ccccn2)nc2sccc12)c1ccc(C#N)cc1 (centres unmarked) [drawing 1691],76 to 100
8,O=C(Nc1nnc(-c2ccccn2)[nH]1)c1ccc(CN2C(=O)CCC2=O)cc1 [drawing 1405],1 to 25
9,O=C(c1csc2c(O)nc(-c3ccccn3)nc12)N1CCC(c2cccc(O)c2)C1 (centres unmarked) [drawing 1716],76 to 100
10,Nc1nc(-c2ccccn2)nc2c(-c3ccccc3Cl)csc12 [drawing 1711],76 to 100
11,COCC1CCN(C(=O)c2csc3c(O)nc(-c4ccccn4)nc23)CC1 [drawing 1564],76 to 100
12,Oc1nc(-c2ccccn2)nc2c(-c3ccc(CN4CCOCC4)cc3)csc12 [drawing 1758],76 to 100
13,N#Cc1cccc(CCNC(=O)c2csc3nc(-c4ccccn4)nc(N4CCOCC4)c23)c1 [drawing 1680],76 to 100
14,O=S(=O)(CCc1ccccc1)N1CCCc2c(O)nc(-c3ccccn3)nc21 [drawing 1552],1 to 25
15,O=C(Nc1nnc(-c2ccccn2)[nH]1)C1CCn2c(cnc2-c2ccccc2)C1 (centres unmarked) [drawing 1389],1 to 25
16,COc1ccc(COCC(=O)Nc2nnc(-c3ccccn3)[nH]2)cc1 [drawing 1471],1 to 25
17,O=C(Nc1nnc(-c2ccccn2)[nH]1)c1ccc(OCC2CC2)cc1 [drawing 1434],76 to 100
18,O=C(NCCc1cccnc1)c1csc2nc(-c3ccccn3)nc(N3CCOCC3)c12 [drawing 1638],76 to 100
19,Cc1cnccc1-c1csc2c(O)nc(-c3ccccn3)nc12 [drawing 1764],76 to 100
20,Oc1nc(-c2ccccn2)nc2c1CCCN2 [drawing 1542],1 to 25
21,Oc1nc(-c2ccccn2)nc2c(-c3cccc4c3OCO4)csc12 [drawing 1725],76 to 100
22,O=C(CCn1ccc2ccccc21)Nc1nnc(-c2ccccn2)[nH]1 [drawing 1392],51 to 75
23,Nc1nc(-c2ccccn2)nc2ccsc12 [drawing 1710],1 to 25
24,CCC(C)c1csc2c(OC)nc(-c3ccccn3)nc12 (centres unmarked) [drawing 1794],76 to 100
25,O=C(Nc1nnc(-c2ccccn2)[nH]1)c1ccc(Oc2cccnc2)cc1 [drawing 1460],76 to 100
26,COc1cccc(N2CCN(C(=O)c3csc4c(O)nc(-c5ccccn5)nc34)CC2)c1 [drawing 1632],76 to 100

row,SMILES,inhibition at 30 µM [%]
1,COc1ccccc1-c1csc2c(O)nc(-c3ccccn3)nc12 [drawing 1746],76 to 100
2,Cc1nc2nc(C(F)(F)F)nn2c(C)c1CC(=O)Nc1nnc(-c2ccccn2)[nH]1 [drawing 1445],51 to 75
3,CCCOc1ccc2ccccc2c1CN(C)S(=O)(=O)N1CC(C)OC(C)C1 (centres unmarked) [drawing 1531],76 to 100
4,O=C(Nc1nc(-c2ccccn2)cs1)c1ccc2[nH]cnc2c1 [drawing 1478],76 to 100
5,O=C(Nc1nnc(-c2ccccn2)[nH]1)c1ncoc1-c1cccs1 [drawing 1416],76 to 100
6,CC(C1CC1)N(CC(F)(F)F)C(=O)Cc1ccc(-c2ccccc2)cc1 (centres unmarked) [drawing 1535],76 to 100
7,O=C(Nc1nnc(-c2ccccn2)[nH]1)C1CCCC(C(F)(F)F)C1 (centres unmarked) [drawing 1430],76 to 100
8,O=C(CN1CCN(c2nc(-c3ccccn3)nc3scc(-c4ccccc4)c23)CC1)N1CCCCC1 [drawing 1611],76 to 100
9,Nc1nc(O)c2scc(-c3ccccc3)c2n1 [drawing 1580],25 to 50
10,Cc1sc2c(N)nc(-c3ccccn3)nc2c1-c1ccccc1 [drawing 1713],76 to 100
11,CNS(=O)(=O)CCCNC(=O)c1csc2nc(-c3ccccn3)nc(N3CCOCC3)c12 [drawing 1684],76 to 100
12,N#Cc1cccc(N2CCN(C(=O)c3csc4c(O)nc(-c5ccccn5)nc34)CC2)c1 [drawing 1649],76 to 100
13,O=C(NCCc1cccnc1)c1csc2c(O)nc(-c3ccccn3)nc12 [drawing 1578],76 to 100
14,O=C(COCc1ccncc1)Nc1nc(-c2ccccn2)nc2sccc12 [drawing 1704],76 to 100
15,CC1CN(c2ccccc2)CCN1C(=O)c1csc2c(O)nc(-c3ccccn3)nc12 (centres unmarked) [drawing 1654],76 to 100
16,Oc1nc(-c2ccccn2)nc2c(-c3ccccc3)csc12 [drawing 1581],76 to 100
17,COc1cc(C)c(-c2csc3c(O)nc(-c4ccccn4)nc23)cc1C [drawing 1745],76 to 100
18,CC(C)CNC(=O)CN1CCN(c2nc(-c3ccccn3)nc3scc(-c4ccccc4)c23)CC1 [drawing 1614],76 to 100
19,O=C(NCCc1ccnc(O)n1)c1csc2nc(-c3ccccn3)nc(N3CCOCC3)c12 [drawing 1774],1 to 25
20,COc1ccccc1C1CN(C(=O)c2csc3c(O)nc(-c4ccccn4)nc23)CCN1 (centres unmarked) [drawing 1665],76 to 100
21,O=C(NCCc1nnn[nH]1)c1csc2nc(-c3ccccn3)nc(N3CCOCC3)c12 [drawing 1679],51 to 75
22,CCOc1cc(C(=O)Oc2c(C)ccc(C)c2C)cc(OCC)c1OCC [drawing 1527],76 to 100
23,Oc1nc(-c2ccccn2)nc2c(-c3ccccc3F)csc12 [drawing 1744],76 to 100
24,OCCNc1nc(-c2ccccn2)nc2scc(-c3ccccc3)c12 [drawing 1509],76 to 100
25,O=C(c1csc2c(O)nc(-c3ccccn3)nc12)N1CCC(c2ccncc2)C1 (centres unmarked) [drawing 1715],76 to 100
26,O=C(c1csc2c(O)nc(-c3ccccn3)nc12)N1CCOC(c2cccc(F)c2)C1 (centres unmarked) [drawing 1635],76 to 100

row,SMILES,inhibition at 30 µM [%]
1,O=C(c1csc2c(O)nc(-c3ccccn3)nc12)N1CCN(c2ccc(O)c(Cl)c2)CC1 [drawing 1696],76 to 100
2,COC(=O)c1cncc(C(=O)Nc2nnc(-c3ccccn3)[nH]2)c1 [drawing 1441],25 to 50
3,Cc1noc(C)c1CC(=O)Nc1nnc(-c2ccccn2)[nH]1 [drawing 1411],25 to 50
4,Cc1cnc(-c2ccccn2)nc1NC(=O)C1CCCc2cc(C#N)ccc21 (centres unmarked) [drawing 1703],76 to 100
5,O=C(Nc1nnc(-c2ccccn2)[nH]1)C1=NOC(c2ccccc2)C1 (centres unmarked) [drawing 1455],25 to 50
6,O=C(Nc1nnc(-c2ccccn2)[nH]1)c1ccn(-c2cccc(F)c2)n1 [drawing 1397],76 to 100
7,O=C(COn1ccnc1)Nc1nc(-c2ccccn2)nc2sccc12,76 to 100
8,Oc1nc(-c2ccccn2)nc2sccc12 [drawing 1590],76 to 100
9,O=C(Nc1nnc(-c2ccccn2)[nH]1)c1cccc(N2CCCS2(=O)=O)c1 [drawing 1452],1 to 25
10,CNC(=O)c1ccc(-c2csc3c(O)nc(-c4ccccn4)nc23)cc1C [drawing 1761],76 to 100
11,COc1ccnc(-c2nc(O)c3c(Cl)csc3n2)c1 [drawing 1693],76 to 100
12,O=C(Cc1ccc(F)cc1)Nc1nnc(-c2ccccn2)[nH]1 [drawing 1427],51 to 75
13,CCN(CC)S(=O)(=O)c1ccc(NCCOC)c(C(=O)NCCSCc2ccc(C)cc2)c1 [drawing 1538],76 to 100
14,O=C(CC1CCCC1)NCC(=O)Nc1nnc(-c2ccccn2)[nH]1 [drawing 1415],1 to 25
15,O=C(COc1ccccc1)Nc1nnc(-c2ccccn2)[nH]1 [drawing 1456],25 to 50
16,CC(C(=O)Nc1ccnc(-c2ccccn2)n1)c1ccc(C#N)cc1 (centres unmarked) [drawing 1687],76 to 100
17,CNC(=O)c1sc2[nH]c(-c3ccccn3)nc(=O)c2c1C [drawing 1491],51 to 75
18,O=C(Nc1nc(-c2ccccn2)cs1)C1CC(=O)N(c2ccc3c(c2)OCCO3)C1 (centres unmarked) [drawing 1482],76 to 100
19,CC1CCN(C(=O)c2csc3c(O)nc(N)nc23)CC1 [drawing 1558],1 to 25
20,O=C(c1cocn1)N1CCCc2c(O)nc(-c3ccccn3)nc21 [drawing 1551],1 to 25
21,CSc1nc(C2CC2)cc(C(=O)NCCc2ccc(S(=O)(=O)NC(=O)c3cc(C4CC4)nc(SC)c3C#N)cc2)c1C#N [drawing 1539],1 to 25
22,CCn1nc(C)cc1-c1csc2c(O)nc(-c3ccccn3)nc12 [drawing 1779],76 to 100
23,OCCOCCNc1nc(-c2ccccn2)nc2scc(-c3ccccc3)c12 [drawing 1515],76 to 100
24,O=S(=O)(Oc1cc(C(F)(F)F)cc(C(F)(F)F)c1)N1CCc2ccccc2C1 [drawing 1532],25 to 50
